The values below come from patent US7230139B2, “Diterpenoid compounds, compositions thereof and their use as anti-cancer or anti-fungal agents” (priority 2004, dated 2007).

Data set [1] has as its system C33A human cervical cancer cells. Description: C33A cervical tumor xenograft in SCID mice. Conditions: for Tumor growth compared to vehicle: two-way ANOVA. It counts as in vivo, CB17 SCID/SCID female mice. Here is the method:
The resultant mice are a model for a human having cervical cancer.
The C33A human cervical cancer cells were maintained in RPMI supplemented with 10% inactivated fetal bovine serum and 1% penicillin-streptomycin-L-Glutamine, under 5% CO2 at 37° C., and passaged twice a week. The cells were grown at a confluency lower than 70% and then collected with Trypsin (Bio-Whittaker, Md., USA). The cells were then centrifuged and washed twice using phosphate buffered saline solution (PBS) and resuspended in PBS at 2×10^6 cells per 100 μl. Viability was examined by staining with Trypan Blue and only flasks with cell viability of greater than 95% were used for in vivo studies.
C33A cells were transplanted subcutaneously into the flank of female CB17 SCID/SCID mice. Each mouse was inoculated with a suspension of 2×10^6 tumor cells per 100 μL on day zero. The following six treatment groups of ten mice each were used: (a) a negative control group treated with intravenous (i.v.) injection of vehicle, (b) a negative control group treated with intraperitoneal (i.p.) injection of vehicle, (c) a positive control group treated with i.p. injection of Cisplatin, (d) a group treated with i.v. injection of a Compound 50, (e) a group treated with i.p. injection of Compound 50, and (f) a group treated with subcutaneous (s.c.) injection of Compound 50.
Treatment started on day thirteen after C33A cells transplantation for Compound 50 treated groups and on day fourteen for Cisplatin treated group. Compound 50 was administered i.v., i.p., and s.c. once daily for five consecutive days at a dose of 10, 15 and 30 mg/kg, respectively. Compound 50 was prepared as a working solution of 1.5 mg/mL in a vehicle solution of 20% Cremaphor EL (Sigma, St. Louis, Mo., USA), 10% Ethanol and 5% Dextrose (Abbot Laboratories, QC, Canada). The negative control groups were treated with vehicle alone. The positive control group was treated once every 3 days for fifteen days at a dose of 3.5 mg/kg. Cisplatin was formulated in PBS on each day of the injection and was administered i.p.
The mice were weighed and the tumors measured on day 13 and every 2 to 3 days after treatment commenced. Observations continued for 36 days after initial tumor implantation. The changes in body weight and in the calculated tumor volume were plotted (FIGS. 4 and 5). Statistical analysis was performed using GraphPad Prism (GraphPad Software Inc., San Diego, Calif.). Two-way ANOVA was used to determine how the treatment affected tumor growth over time. Following the two-way ANOVA, post-tests were performed using the Benferroni method to determine the statistical difference between the mean tumor-size of the two groups being compared on every day that the tumors were measured. Four animals in the negative control injected i.v. with vehicle and two animals in the group treated i.v. with Compound 50 died during the observation period. Therefore, the data collected from these animals were excluded from all calculations and the total number of animals in the groups changed to six for the negative control injected i.v. with vehicle and eight for the group treated i.v. with Compound 50.

In data set [2] the test system is Candida albicans strain ATCC 10231. Description: Fungus growth inhibition (OD600). It counts as cell-based. Conditions: dilution series, YEP glucose, 30° C.; dose-dependent. As to the method:
Fungus cells were first cultured overnight in 10 mL of YEP glucose-containing medium at 30° C. The following day, 5 μL of the overnight culture (5–6×10^3 cells) was added to 100 μL of YEP glucose-containing medium in a 96-well microtitre plate. To these cultures a dilution series of Compound 50 was added. Compound 50 was prepared as a stock solution in 100% dimethyl sulfoxide (DMSO) at a concentration of 10 mM. Serial dilutions were prepared in distilled water. The final DMSO concentration in each well was 0.5%. Fungus cells were grown at 30° C. and cell growth was monitored by reading the OD600 (optical density at 600 nm) with a Tecan Ultra plate reader (TECAN U.S. Inc. Research Triangle Park, N.C., USA). […] Accordingly, Compound 50, an illustrative Diterpenoid Compound, is useful for inhibiting the growth of a fungus or treating a fungal infection.

Data set [3] is described as follows: Solubility by filtration and LC/MS. In kind it is physicochemical. Conditions: in water (printed for Compound 74). As to the method:
To determine whether a compound is soluble in a solution, the solution was filtered on […] polytetrafluoroethylene filters (Whatman Inc. Clifton, N.J., USA) and the compound concentration in the filtrate was measured by LC/MS and compared to the expected concentration. If the concentration of the compound in the filtrate was equal +/−15% to the expected concentration, the compound was judged to be soluble in the solution.
The detection of Compound 74 or Compound 50 by LC/MS was carried out using the HPLC system that consisted of a Waters Alliance quaternary gradient HPLC pump (Waters, Milford, Mass., USA) and a ZQ2000 single quadrupole mass spectrometer (Waters, Milford, Mass., USA). The column used was XTerra MS C18: 50×2.1 mm, […] column at 20° C. Samples were injected and separated under the following conditions: The mobile phase “A” consisted of 5 mM ammonium formate, 0.1% formic acid in water and mobile phase “B” consisted of 5 mM ammonium formate, 0.1% formic acid in methanol. A linear gradient was applied as follows: 0 to 1 min, 94% “A” and 6% “B”; 1 to 4 min, 6% to 100% “B”; 4 to 8 min 100% “B”; 8 to 9 min, 100% “B” to 6% “B”; 9 to 12 min, 94% “A” and 6% “B”. […] Compounds were detected at m/z equal to their respective molecular weight plus 1.

Turning to `COc1ccc2c(c1)C1(C)C=CC(=O)C(C)(C)C1=C(O)C2=O` (racemic) [Compound 50], the “Tumor growth compared to vehicle” value in data set [1] (i.p. 15 mg/kg once a day for five days), in data set [1] (i.v. 10 mg/kg once a day for five days) and in data set [1] (s.c. 30 mg/kg once a day for five days) was “significant reduction (p<0.001)” throughout. For the same compound, the “Mean tumor-size compared to vehicle” value in data set [1] (i.p., day 34 and day 36) is reported as “significantly (p<0.05) smaller mean tumor-size”; in data set [1] (i.v. 10 mg/kg, day 36) it was “significantly (p<0.05) smaller mean tumor-size”; in data set [1] (s.c., day 34 (p<0.01) and day 36 (p<0.001)), “significantly smaller mean tumor-size”. Besides, in data set [2], the “Growth of Candida albicans” value is on record as “significantly inhibited growth”. In addition, in data set [3], the solubility is under 100 µg/mL.

One may read the solubility as the dissolved amount per volume that the medium holds. High values mean much dissolved substance, low ones little dissolved substance.
